Paper PMC8876959, “Comparative Evaluation of Radiochemical and Biological Properties of ^131I- and [^99mTc]Tc(CO)3-Labeled RGD Analogues Planned to Interact with the αvβ3 Integrin Expressed in Glioblastoma” (Pharmaceuticals, 2022)
Non-standard residues stand in square brackets, D forms with d. Residues, ends and D or L forms follow the SMILES beside them. Tyr(3,5-I2) = N[C@@H](Cc1cc(I)c(O)c(I)c1)C(=O)O

CC(C)[C@H](NC(=O)[C@H](Cc1cc(I)c(O)c(I)c1)NC(=O)[C@H](CC(=O)O)NC(=O)CNC(=O)[C@H](CCCNC(=N)N)NC(=O)CN)C(=O)O [[^131I]I-GRGDYV] (H-GRGD[Tyr(3,5-I2)]V-OH)
Radiochemical purity in human serum up to 24 h: > 94%
